From patent US9023841B2, “Compositions and methods for the treatment of asthma and associated disorders” (University of Southern California, priority 2011, dated 2015)
Entries after “also recorded” stand apart in the source; their conditions may differ.

Columns and labels:
BALB/c mice [1] = assay: OVA-induced AHR in BALB/c mice treated with autophagy inducers or inhibitor (whole body plethysmography, PenH); format: in vivo; conditions: i.p., DCMI 1 mg/kg, tamoxifen 100 μM, clonidine 0.1 mg/kg, carbamazepine 20 mg/kg, compared to OVA controls
Procedure: FIGS. 3A to 3E illustrate altered development of AHR and lung inflammation in BALB/c mice treated with autophagy inducers and inhibitor. FIG. 3A is a schematic for the sensitization and challenge protocol with administration of autophagy inhibitors and inducers via i.p. injection. FIGS. 3B and C show AHR was determined by whole body plethysmography and is expressed as mean PenH in the presence or absence of (FIG. 3B) autophagy inhibitor desmethylclomipramine (“DCMI”) 1 mg/kg or (FIG. 3C) autophagy inducers tamoxifen 100 μM, clonidine 0.1 mg/kg or carbamazepine 20 mg/kg. FIGS. 3D and E are a quantitative determination of cellular infiltration into BAL was determined by cytospin preparation in the presence or absence of (FIG. 3D) autophagy inhibitor and (FIG. 3E) autophagy inducers. Representative data from two independent experiments with 3 mice per group, expressed as mean±SEM. PBS refer to naïve BALB/c animals. Figure legend: Total: Total of number of cells in the BAL, PMN: polymorphonuclear cells, EOS: Eosinophils, MACRO: Macrophages, Lymph: Lymphocytes
Autophagy inducers (Carbamazepin, Tamoxifen, and Clonidine) and inhibitors (DCMI) were administered on days 10 to 13 (FIG. 9A). […] This was the opposite when treated with the autophagy inducers (Carbamazepin, Tamoxifen, and Clonidine) (FIG. 9C). Therefore, autophagy is an important mediator in AHR.
There are many reported small molecule inducers and inhibitors of autophagy (Balgi et al. (2009) PLoS One 4:e7124; Mizushima et al. (2006) Autophagy 2:302-304; Vooijs et al. (2001) EMBO Rep 2:292-297; Fujita et al. (2008) Mol Biol Cell 19:2092-2100; Kuma et al. (2004) Nature 432:1032-1036; Inoue et al. (2011) Biochem Biophys Res Commun 405:13-18). In preliminary studies, Applicant has used a range of different inducers (tamoxifen (Akbari et al. (2001) Nat Immunol 2:725-731), clonidine (Mizushima et al. (2006) Autophagy 2:302-304) and carbamazepine (Renna et al. (2010) J Biol Chem 285:11061-11067)) and one inhibitor (desmethylclomipramine (“DCMI”) (Balgi et al. (2009) PLoS One 4:e7124)). A standard sensitization and challenge protocol was used for the induction of AHR in BALB/c (FIG. 3A). […] This is in agreement with Applicant's findings using the Atg5Δ animals that inhibition of autophagy has a deleterious effect on lung function. When autophagy is induced (with tamoxifen, clonidine or carbamazepine) AHR after sensitization and challenge with OVA is reduced compared to controls (FIG. 3C). […] When autophagy is inhibited total cell numbers in the BAL are increased (FIG. 3D) in contrast, in the presence of autophagy inducers total cell numbers and in particular eosinophils are reduced (FIG. 3E).

BALB/c mice [2] = assay: Cellular infiltration into BAL by cytospin preparation, OVA model; format: in vivo; conditions: OVA sensitized and challenged BALB/c, i.p. treatment
Procedure: FIGS. 3A to 3E illustrate altered development of AHR and lung inflammation in BALB/c mice treated with autophagy inducers and inhibitor. FIG. 3A is a schematic for the sensitization and challenge protocol with administration of autophagy inhibitors and inducers via i.p. injection. FIGS. 3B and C show AHR was determined by whole body plethysmography and is expressed as mean PenH in the presence or absence of (FIG. 3B) autophagy inhibitor desmethylclomipramine (“DCMI”) 1 mg/kg or (FIG. 3C) autophagy inducers tamoxifen 100 μM, clonidine 0.1 mg/kg or carbamazepine 20 mg/kg. FIGS. 3D and E are a quantitative determination of cellular infiltration into BAL was determined by cytospin preparation in the presence or absence of (FIG. 3D) autophagy inhibitor and (FIG. 3E) autophagy inducers. Representative data from two independent experiments with 3 mice per group, expressed as mean±SEM. PBS refer to naïve BALB/c animals. Figure legend: Total: Total of number of cells in the BAL, PMN: polymorphonuclear cells, EOS: Eosinophils, MACRO: Macrophages, Lymph: Lymphocytes […]

[3] = test system: moderate to severe patients with asthma; conditions: clinical trial; cited from earlier work
BALB/c mice [4] = assay: Acute OVA-induced AHR (PenH, methacholine challenge), a4-vFLIP peptide; format: in vivo; conditions: acute OVA model, 300 μg i.p. days 11 to 13, compared to OVA+TAT pep, P<0.003
Procedure: Briefly on day 1, naïve BALB/c mice (N=5 per group) received an intraperitoneal (i.p.) injection with ovalbumin (OVA) ([…]) in Alum (2 mg). After resting for 10 days, mice were treated intranasally (i.n.) with OVA (50 μg) and i.p. with the autophagy inducer α4-TAT-vFLIP ([…]) on days 11 to 13. On day 14, the enhanced pause (PenH) variable was measured to determine airway hyperreactivity (AHR).
Briefly, administration of alpha4-TAT-vFLIP (a.k.a. a4-vFLIP) peptide restores lung function in an acute model of OVA induced asthma. Increasing doses of methacholine, a muscarinic receptor agonist to induce AHR, was administered to the different treatment groups of mice and the PenH was determined. […] Ctrl group (dark triangles) after methacholine challenge. […] Therefore, the autophagy peptide inducer a4-vFLIP was able to reduce AHR after OVA challenge.

BALB/c mice [5] = assay: Acute HDM-induced AHR (PenH, methacholine challenge), a4-vFLIP peptide; format: in vivo; conditions: acute HDM model, 300 μg i.p. days 13 to 15, compared to HDM+TAT pep, P<0.003
Procedure: FIG. 9D illustrates a protocol to induce acute AHR by HDM. On day 1, naïve BALB/c mice (N=5 per group) received an intranasal (i.n.) injection with house dust mite (HDM) ([…]). After resting for 6 days, mice were treated intranasally (i.n.) with HDM ([…]) from days 7 to 14 and i.p. with the autophagy inducer a4-TAT-vFLIP (300 μg) on days 13 to 15. On day 16, the enhanced pause (PenH) variable was measured to determine airway hyperreactivity (AHR).
Increasing doses of methacholine, a muscarinic receptor agonist to induce AHR, was administered to the different treatment groups of mice and the PenH was determined. […] Ctrl group (dark triangles) after methacholine challenge. […] Therefore, the autophagy peptide inducer was able to reduce AHR after HDM challenge.

BALB/c mice [6] = assay: Lung histology (hematoxylin and eosin), HDM model; format: in vivo; conditions: HDM+vFLIP compared to HDM alone
Excerpt: (§1) Thereafter, lung sections were stained with hematoxylin and eosin (HE) from the different groups in the HDM and OVA models. Airway inflammation and remodeling were decreased in the HDM/OVA+vFLIP compared to OVA/HDM alone based on smooth muscle hyperplasia, epithelial cell proliferation, subepithelial fibrosis and basement membrane thickening.

BALB/c mice [7] = assay: Lung histology (hematoxylin and eosin), OVA model; format: in vivo; conditions: OVA+vFLIP compared to OVA alone
Excerpt: as §1

BALB/c mice [8] = assay: Chronic OVA-induced AHR (PenH); format: in vivo; conditions: TAT as irrelevant peptide control
Procedure: BALB/c mice were treated with OVA to induce chronic AHR and administered a4-TAT-vFLIP (as autophagy inducer) and TAT (as irrelevant peptide, control). AHR was assessed by Pen H (enhanced pause).

CNCCCN1c2ccccc2CCc2ccc(Cl)cc21 [DCMI, desmethylclomipramine]
AHR (mean PenH) after sensitization and challenge with OVA (BALB/c mice [1]): greatly increased; also recorded: significant increase
total cell numbers in the BAL (BALB/c mice [2]): increased

NC(=O)N1c2ccccc2C=Cc2ccccc21 [carbamazepine]
AHR (mean PenH) after sensitization and challenge with OVA (BALB/c mice [1]): reduced
AHR (mean PenH) after sensitization and challenge with OVA (BALB/c mice [1]; listed as Carbamazepin): opposite
efficacy for the treatment of asthma [3]: improve asthma; also recorded: high efficacy

Clc1cccc(Cl)c1N=C1NCCN1 [clonidine]
AHR (mean PenH) after sensitization and challenge with OVA (BALB/c mice [1]): reduced
AHR (mean PenH) after sensitization and challenge with OVA (BALB/c mice [1]; listed as Clonidine): opposite

CC/C(=C(\c1ccccc1)c1ccc(OCCN(C)C)cc1)c1ccccc1 [tamoxifen]
AHR (mean PenH) after sensitization and challenge with OVA (BALB/c mice [1]): reduced
AHR (mean PenH) after sensitization and challenge with OVA (BALB/c mice [1]; listed as Tamoxifen): opposite

RRRQRRKKRGY-G-LMNSFVCLIVSS (RRRQRRKKRGYGLMNSFVCLIVSS) [a4-vFLIP, autophagy peptide inducer, 24aa TAT-fused α4 vFLIP peptide]
AHR (PenH) after methacholine challenge (BALB/c mice [4]): statistically significant reduction
AHR (PenH) after methacholine challenge (BALB/c mice [5]): statistically significant reduction
Airway inflammation and remodeling (smooth muscle hyperplasia, epithelial cell proliferation, subepithelial fibrosis, basement membrane thickening) (BALB/c mice [6]): decreased
Airway inflammation and remodeling (smooth muscle hyperplasia, epithelial cell proliferation, subepithelial fibrosis, basement membrane thickening) (BALB/c mice [7]): decreased
chronic AHR (PenH) (BALB/c mice [8]): decreased levels of AHR
